Here are results for 26 compounds from ChEMBL document CHEMBL5154714, “Discovery of Novel Bicyclic Imidazolopyridine-Containing Human Urate Transporter 1 Inhibitors as Hypouricemic Drug Candidates with Improved Efficacy and Favorable Druggability” (J Med Chem, 2022).

Experiment [1] deals with Mus musculus. Put plainly: Hypouricemic activity in Kunming mouse model of xanthine and potassium oxonate-induced acute hyperuricemia assessed as decrease in serum uric acid concentration at 2 mg/kg, po incubated for more than 4 hrs. The class given is functional.
In experiment [2] the test system is Mus musculus. Put plainly: Hypouricemic activity in Kunming mouse model of xanthine and potassium oxonate-induced acute hyperuricemia assessed as decrease in serum uric acid ratio at 2 mg/kg, po incubated for more than 4 hrs. The class given is functional. Set-up: scale not given: the % may be the effect or the level left.

Regarding `O=C(O)CCCSc1nc2cnccc2n1Cc1ccc(Br)c2ccccc12`, the values for the Activity in the experiment on Mus musculus [1] and in the experiment with Mus musculus [2] were 1110.8 µM and 8%, respectively.

In the case of `O=C(O)CCCSc1nc2ncccc2n1Cc1ccc(Br)c2ccccc12`, the Activity in the experiment on Mus musculus [1] came to 467.8 µM; in the experiment on Mus musculus [2], 68.6%.

In the case of `O=C(O)CCSc1nc2cnccc2n1Cc1ccc(C2CC2)c2ccccc12`, the Activity with Mus musculus [1] is 658.4 µM; in the experiment on Mus musculus [2], 50.7%.

Take `CC(C)(Sc1nc2cnccc2n1Cc1ccc(C2CC2)c2ccccc12)C(=O)O`: the Activity amounted to 743.8 µM in the experiment with Mus musculus [1] and 42.6% in the experiment with Mus musculus [2].

As to `CC(Sc1nc2cnccc2n1Cc1ccc(Br)c2ccccc12)C(=O)O` (configuration not stated), the values for the Activity in the experiment on Mus musculus [1] and in the experiment on Mus musculus [2] were 801.8 µM and 37.2%, respectively.

`O=C(O)C1(Sc2nc3cnccc3n2Cc2ccc(Br)c3ccccc23)CCC1`: the Activity in the experiment on Mus musculus [1] amounted to 396 µM; with Mus musculus [2], 75.4%.

For the compound `O=C(O)CSc1nc2ncccc2n1Cc1ccc(C2CC2)c2ccccc12`, the Activity with Mus musculus [1] amounted to 558.2 µM; in the experiment with Mus musculus [2], 60.1%.

Turning to `O=C(O)CCCSc1nc2cnccc2n1Cc1ccc(C2CC2)c2ccccc12`, the Activity in the experiment on Mus musculus [1] was found to be 1105 µM; in the experiment with Mus musculus [2] it was 8.6%.

For the compound `O=C(O)C1(Sc2nc3cnccc3n2Cc2ccc(C3CC3)c3ccccc23)CCC1`, the Activity with Mus musculus [1] worked out at 546 µM; with Mus musculus [2] it was 61.3%.

On to `O=C(O)C1(Sc2nc3ncccc3n2Cc2ccc(C3CC3)c3ccccc23)CCC1`, for which the results for the Activity with Mus musculus [1] and in the experiment on Mus musculus [2] were 853.4 µM and 32.3%, respectively.

Take `CC(C)(Sc1nc2ncccc2n1Cc1ccc(C2CC2)c2ccccc12)C(=O)O`: the Activity in the experiment on Mus musculus [1] worked out at 759.2 µM; with Mus musculus [2], 41.2%.

Take `CC(Oc1nc2cnccc2n1-c1ccc(C2CC2)c2ccccc12)C(=O)O` (configuration not stated): the Activity in the experiment on Mus musculus [1] worked out at 994 µM; in the experiment with Mus musculus [2], 5.9%.

As to `CC(Sc1nc2ncccc2n1Cc1ccc(C2CC2)c2ccccc12)C(=O)O` (configuration not stated), the Activity amounted to 629.8 µM in the experiment with Mus musculus [1] and 53.4% with Mus musculus [2].

For the compound `O=C(O)CCSc1nc2cnccc2n1Cc1ccc(Br)c2ccccc12`, the figures for the Activity with Mus musculus [1] and in the experiment on Mus musculus [2] were 624.8 µM and 53.8%, respectively.

Regarding `O=C(O)CSc1nc2ncccc2n1Cc1ccc(Br)c2ccccc12`, the Activity with Mus musculus [1] was 400.2 µM; in the experiment with Mus musculus [2] it was 75%.

`O=C(O)CCOc1nc2cnccc2n1-c1ccc(C2CC2)c2ccccc12`: the Activity worked out at 972.6 µM in the experiment on Mus musculus [1] and 8.2% in the experiment with Mus musculus [2].

On to `CC(C)(Oc1nc2cnccc2n1-c1ccc(C2CC2)c2ccccc12)C(=O)O`, for which the Activity in the experiment on Mus musculus [1] was determined as 442.8 µM; in the experiment with Mus musculus [2], 64.7%.

Turning to `O=C(O)COc1nc2ncccc2n1-c1ccc(C2CC2)c2ccccc12`, the Activity in the experiment on Mus musculus [1] amounted to 250.4 µM; with Mus musculus [2], 85.2%.

As for `O=C(O)CCSc1nc2ncccc2n1Cc1ccc(Br)c2ccccc12`, the Activity with Mus musculus [1] came out at 1150.6 µM; in the experiment on Mus musculus [2], 4.3%.

With `CC(Sc1nc2ncccc2n1Cc1ccc(Br)c2ccccc12)C(=O)O` (configuration not stated), the figures for the Activity in the experiment with Mus musculus [1] and in the experiment with Mus musculus [2] were 545.8 µM and 61.3%, respectively.

As for `O=C(O)C1(Sc2nc3ncccc3n2Cc2ccc(Br)c3ccccc23)CCC1`, the Activity in the experiment on Mus musculus [1] was 462.4 µM; in the experiment on Mus musculus [2], 69.1%.

`CC(Sc1nc2cnccc2n1Cc1ccc(C2CC2)c2ccccc12)C(=O)O` (configuration not stated): the results for the Activity in the experiment on Mus musculus [1] and with Mus musculus [2] were 787.4 µM and 38.5%, respectively.

On to `O=C(O)COc1nc2cnccc2n1-c1ccc(C2CC2)c2ccccc12`, for which the values for the Activity in the experiment with Mus musculus [1] and with Mus musculus [2] were 220 µM and 88.5%, respectively.

Consider `O=C(O)CSc1nc2cnccc2n1Cc1ccc(Br)c2ccccc12`, for which the Activity in the experiment on Mus musculus [1] came out at 740.6 µM; in the experiment on Mus musculus [2], 42.9%.

Turning to `O=C(O)CCCOc1nc2ncccc2n1-c1ccc(C2CC2)c2ccccc12`, the Activity with Mus musculus [1] amounted to 735.2 µM; with Mus musculus [2], 33.5%.

Take `O=C(O)CCCSc1nc2ncccc2n1Cc1ccc(C2CC2)c2ccccc12`: the Activity stood at 1050.2 µM in the experiment on Mus musculus [1] and 13.7% with Mus musculus [2].
